Data from PubChem BioAssay (NCI).
Where “and” joins values, the source holds several entries; their conditions need not be identical. Identical values can stand only once.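 Cells were grown in 96-well plates and exposed to each compound for 48 hours at five concentrations; endpoints were interpolated linearly between bracketing concentrations, or set to the highest concentration if not reached. GI50 = concentration required for 50% inhibition of growth. TGI is the concentration that stops growth completely.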

The compounds below were run on 786-0 renal (assay: NCI-60 cell line screen, 48 h).

| SMILES | TGI | GI50 |
| --- | --- | --- |
| CC(=O)N1[C@H](C(=O)O)CS[C@H]1c1ccncc1 | > 100 µM |  |
| CC1(C)COC(c2ccc(C(F)(F)F)cc2C(O)c2ccc3ccccc3c2)=N1 (stereo not given) | > 100 µM | > 100 µM |
| COc1ccc(NC(=O)c2cc(OC)cc(OC)c2)cc1 | > 100 µM |  |
| CC1(C)OC(=O)C(=Cc2ccc(O)cc2)C(=O)O1 | > 100 µM |  |
| COc1ccc(C2=CSc3cc(Cl)c(C)cc3S(=O)(=O)N2C(C)=O)cc1 | > 100 µM | 39.1 µM |
| COc1ccc(/C=C\c2cc(OC)c3c(c2)OCO3)c(O)c1O | 14.7 µM |  |
| CC(=O)OC1COC(n2c(=S)n(-c3ccc(C)cc3)c(=O)c3ccccc32)C(OC(C)=O)C1OC(C)=O (stereo not given) | > 100 µM |  |
| COc1cccc(NC(=O)CC(=O)n2nc(C)c(N=Nc3ccccc3)c2C)c1 | > 100 µM |  |
| CC[C@@]12CCCN3CC[C@]4(c5cccc(OC)c5N(C(C)=O)[C@@H]4CC1)[C@H]32 | > 100 µM |  |
| CC(=O)[O][Hg][c]1c(N)c(C)cc(C)c1F | 3.32 µM | 1.79 µM |
| O=C(O)CCSC(=O)Nc1cccc(F)c1 | > 100 µM |  |
| CCNC1C2(CCCCC2)NC(=O)C12CCCCC2 (stereo not given) | > 100 µM |  |
| O=C1C2=C(SCCS2)C(=O)c2ccccc21 | 3.12 µM |  |
| c1cc2c(cc1NC1=NCCO1)CCC2 | > 10 µM |  |

The compounds below were run on OVCAR-8 ovarian (assay: NCI-60 cell line screen, 48 h).

| SMILES | GI50 | TGI |
| --- | --- | --- |
| NC(CSC(c1ccccc1)(c1ccccc1)c1ccc2c(c1)OCO2)C(=O)O (stereo not given) | 0.595 µM | > 100 µM |
| C=CCc1cc(OC)c2c(c1)C(O)CC(c1ccc(OC)c(OC)c1)O2 (stereo not given) |  | > 100 µM |
| O=C(NCCNc1nccc(-c2c(-c3cccc(O)c3)nc3sccn23)n1)c1ccccc1O | 3.14 µM | 25.4 µM |
| CC(C)=CCCc1c(C)ccc2c1C(=O)C(=O)C(C(C)C)=C2 |  | 7 µM |
| NS(=O)(=O)c1ccccc1C(=O)N/N=C(\c1nc2ccc([N+](=O)[O-])cc2[nH]c1=O)C(O)c1ccc([N+](=O)[O-])cc1 (stereo not given) |  | > 100 µM |
| N#CC(C#N)=c1ccc(=C2NCC3CCCN23)cc1 (stereo not given) |  | > 100 µM |
| CCOC(=O)COc1cccc2c1C(=O)CCO2 |  | > 100 µM |
| CSc1ccc(/C=C2\CN(C)C/C(=C\c3ccc(SC)cc3)C2=O)cc1 |  | 39.6 µM |
| Nc1ccc(C(=O)N/C(=C\c2ccc3c(c2)OCO3)c2nc3[nH]c(=S)[nH]c(=O)c3[nH]2)cc1 |  | > 100 µM |
| COC(=O)[C@@]12C3=NO[C@]1(C(=O)OC)C(O[Si](C)(C)C(C)(C)C)[C@H]1OC(C)(C)O[C@H]1[C@@H]2C(OCc1ccccc1)CC3 (stereo not given in full) |  | > 100 µM |
| O=C(N/C(=C\c1cc(Cl)ccc1Cl)c1nc2[nH]c(=S)[nH]c(=O)c2[nH]1)c1ccccc1 |  | > 71.8 µM |
| CN(CC(=O)O)S(=O)(=O)c1ccc2ccccc2c1 |  | > 100 µM |
| CCN(CC)CC(C(=O)Nc1c(C)cccc1C)/C(C)=N\NC(=O)C[N+](C)(C)C (stereo not given) |  | > 100 µM |
| CC1=C(C(=O)Nc2ccccc2C)C(c2ccco2)C(C(=O)Nc2ccccc2C)=C(C)N1C |  | > 100 µM |
| CC(=O)OC(C)C(=O)C1c2cccc(O)c2C(=O)c2c(O)cc(C)cc21 (stereo not given) |  | 2.24 µM |
| CC(=O)C(CN(C(C)C)C(C)C)C(c1ccccc1)c1c(O)c2ccccc2oc1=O (stereo not given) |  | > 100 µM |
| COc1ccc2c(c1)C1(C=N2)CCN(C(C)=O)CC1 |  | > 100 µM |
| NC(CCc1nc(-c2ccc(Cl)cc2)cs1)C(=O)O (stereo not given) |  | > 100 µM |
| O=C1NC2(CCCCC2)C2CCCCC(O)C12 (stereo not given) |  | > 100 µM |
| COc1ccc(-n2/c(=N/C(=S)N(C)C)ss/c2=N\C(=S)N(C)C)cc1 |  | > 100 µM |
| CCOC(=O)C1=C(C)CC2C(=O)OC(=O)C2C1(C)C (stereo not given) |  | > 100 µM |

| SMILES | GI50 | TGI |
| --- | --- | --- |
| Oc1ccc(Cl)cc1-c1cc(-c2ccccc2Cl)[nH]n1 | 7.13 µM | > 100 µM |
| CCOC(=O)C(Sc1ccccc1)c1c(OC)cc(=O)oc1/C=[N+](/[O-])c1ccc(N(C)C)cc1 (stereo not given) |  | 44.2 µM |
| CNC(=O)c1cc(Oc2ccc3nc(NC(=O)Nc4ccc(Cl)c(C(F)(F)F)c4)sc3c2)ccn1 | 2.34 µM | 5.25 µM |
| COc1ccc2nc3cc(Cl)ccc3c(Sc3ccccc3[N+](=O)[O-])c2c1 |  | > 100 µM |
| O=C(O)C(Cc1ccccc1)N1C(=O)N/C(=C\c2ccc(F)cc2)C1=O (stereo not given) |  | > 100 µM |
| C/C(CCn1[nH]c(=O)ccc1=O)=N\O |  | > 100 µM |
| COc1ccccc1NC(=O)CC(=O)n1nc(C)c(N=Nc2ccccc2C(=O)O)c1C |  | > 100 µM |
| CC(=O)N1[C@H](C(=O)O)CS[C@H]1c1ccncc1 |  | > 100 µM |
| CC1(C)COC(c2ccc(C(F)(F)F)cc2C(O)c2ccc3ccccc3c2)=N1 (stereo not given) | > 100 µM | > 100 µM |
| COc1ccc(NC(=O)c2cc(OC)cc(OC)c2)cc1 |  | > 100 µM |
| CC1(C)OC(=O)C(=Cc2ccc(O)cc2)C(=O)O1 |  | > 100 µM |
| COc1ccc(C2=CSc3cc(Cl)c(C)cc3S(=O)(=O)N2C(C)=O)cc1 | 33.8 µM | > 100 µM |
| COc1ccc(/C=C\c2cc(OC)c3c(c2)OCO3)c(O)c1O |  | 32.5 µM |
| CC(=O)OC1COC(n2c(=S)n(-c3ccc(C)cc3)c(=O)c3ccccc32)C(OC(C)=O)C1OC(C)=O (stereo not given) |  | > 100 µM |
| COc1cccc(NC(=O)CC(=O)n2nc(C)c(N=Nc3ccccc3)c2C)c1 |  | > 100 µM |
| CC[C@@]12CCCN3CC[C@]4(c5cccc(OC)c5N(C(C)=O)[C@@H]4CC1)[C@H]32 |  | > 100 µM |
| O=C(O)CCSC(=O)Nc1cccc(F)c1 |  | > 100 µM |
| CCNC1C2(CCCCC2)NC(=O)C12CCCCC2 (stereo not given) |  | > 100 µM |
| O=C1C2=C(SCCS2)C(=O)c2ccccc21 |  | 3.04 µM |
| c1cc2c(cc1NC1=NCCO1)CCC2 |  | > 10 µM |

These compounds were tested on SNB-75 CNS (assay: NCI-60 cell line screen, 48 h).

| SMILES | GI50 | TGI |
| --- | --- | --- |
| NC(CSC(c1ccccc1)(c1ccccc1)c1ccc2c(c1)OCO2)C(=O)O (stereo not given) | 0.283 µM | 7.06 µM |
| C=CCc1cc(OC)c2c(c1)C(O)CC(c1ccc(OC)c(OC)c1)O2 (stereo not given) |  | > 100 µM |
| O=C(NCCNc1nccc(-c2c(-c3cccc(O)c3)nc3sccn23)n1)c1ccccc1O | 2.29 µM | 19.6 µM |
| CC(C)=CCCc1c(C)ccc2c1C(=O)C(=O)C(C(C)C)=C2 |  | > 22 µM |
| NS(=O)(=O)c1ccccc1C(=O)N/N=C(\c1nc2ccc([N+](=O)[O-])cc2[nH]c1=O)C(O)c1ccc([N+](=O)[O-])cc1 (stereo not given) |  | > 100 µM |
| N#CC(C#N)=c1ccc(=C2NCC3CCCN23)cc1 (stereo not given) |  | > 100 µM |
| CSc1ccc(/C=C2\CN(C)C/C(=C\c3ccc(SC)cc3)C2=O)cc1 |  | 38.2 µM |
| COC(=O)[C@@]12C3=NO[C@]1(C(=O)OC)C(O[Si](C)(C)C(C)(C)C)[C@H]1OC(C)(C)O[C@H]1[C@@H]2C(OCc1ccccc1)CC3 (stereo not given in full) |  | 58 µM |
| O=C(N/C(=C\c1cc(Cl)ccc1Cl)c1nc2[nH]c(=S)[nH]c(=O)c2[nH]1)c1ccccc1 |  | > 100 µM |
| CN(CC(=O)O)S(=O)(=O)c1ccc2ccccc2c1 |  | > 100 µM |
| CCN(CC)CC(C(=O)Nc1c(C)cccc1C)/C(C)=N\NC(=O)C[N+](C)(C)C (stereo not given) |  | > 100 µM |
| CC(=O)OC(C)C(=O)C1c2cccc(O)c2C(=O)c2c(O)cc(C)cc21 (stereo not given) |  | 1.83 µM |
| O=[S@@]1Nc2ccc(Br)cc2S1 |  | > 100 µM |
| CC(=O)C(CN(C(C)C)C(C)C)C(c1ccccc1)c1c(O)c2ccccc2oc1=O (stereo not given) |  | > 100 µM |
| COc1ccc2c(c1)C1(C=N2)CCN(C(C)=O)CC1 |  | > 100 µM |
| NC(CCc1nc(-c2ccc(Cl)cc2)cs1)C(=O)O (stereo not given) |  | > 100 µM |
| O=C1NC2(CCCCC2)C2CCCCC(O)C12 (stereo not given) |  | > 100 µM |
| COc1ccc(-n2/c(=N/C(=S)N(C)C)ss/c2=N\C(=S)N(C)C)cc1 |  | 52.6 µM |

| SMILES | GI50 | TGI |
| --- | --- | --- |
| Oc1ccc(Cl)cc1-c1cc(-c2ccccc2Cl)[nH]n1 | 2.77 µM | > 100 µM |
| CCOC(=O)C(Sc1ccccc1)c1c(OC)cc(=O)oc1/C=[N+](/[O-])c1ccc(N(C)C)cc1 (stereo not given) |  | 76.4 µM |
| CNC(=O)c1cc(Oc2ccc3nc(NC(=O)Nc4ccc(Cl)c(C(F)(F)F)c4)sc3c2)ccn1 | 1.52 µM | 3.24 µM |
| COc1ccc2nc3cc(Cl)ccc3c(Sc3ccccc3[N+](=O)[O-])c2c1 |  | 37.3 µM |
| O=C(O)C(Cc1ccccc1)N1C(=O)N/C(=C\c2ccc(F)cc2)C1=O (stereo not given) |  | > 100 µM |
| C/C(CCn1[nH]c(=O)ccc1=O)=N\O |  | > 100 µM |
| COc1ccccc1NC(=O)CC(=O)n1nc(C)c(N=Nc2ccccc2C(=O)O)c1C |  | > 100 µM |
| CC(=O)N1[C@H](C(=O)O)CS[C@H]1c1ccncc1 |  | > 100 µM |
| CC1(C)COC(c2ccc(C(F)(F)F)cc2C(O)c2ccc3ccccc3c2)=N1 (stereo not given) | > 10 µM | > 10 µM and 37.9 µM |
| COc1ccc(NC(=O)c2cc(OC)cc(OC)c2)cc1 |  | > 83.6 µM |
| COc1ccc(/C=C\c2cc(OC)c3c(c2)OCO3)c(O)c1O |  | 15.5 µM |
| CC(=O)OC1COC(n2c(=S)n(-c3ccc(C)cc3)c(=O)c3ccccc32)C(OC(C)=O)C1OC(C)=O (stereo not given) |  | > 100 µM |
| COc1cccc(NC(=O)CC(=O)n2nc(C)c(N=Nc3ccccc3)c2C)c1 |  | > 100 µM |
| CC(=O)[O][Hg][c]1c(N)c(C)cc(C)c1F | 1.6 µM | 5.25 µM |
| CCNC1C2(CCCCC2)NC(=O)C12CCCCC2 (stereo not given) |  | > 100 µM |
| O=C1C2=C(SCCS2)C(=O)c2ccccc21 |  | 3.03 µM |
| c1cc2c(cc1NC1=NCCO1)CCC2 |  | > 10 µM |
